The source of these data is patent US5952324A, “Bicyclic oxazine and thiazine oxazolidinone antibacterials” (Pharmacia & Upjohn Company, priority 1997, dated 1999).

This experiment deals with S. aureus UC ® 9213. Nature of the experiment: In vivo murine assay, ED50 against S. aureus UC 9213 infection (survival, female mice). Conditions: Staphylococcus aureus, UC9213, 144 h; PO; female mice infected intraperitoneally; dosed one and five hours after infection, six dose levels; survival six days, probit analysis; read-out: ED50 (mg/kg), Example, PO. As to the method: Antimicrobial activity was tested in vivo using a Murine Assay procedure. Groups of female mice were injected intraperitoneally with bacteria which were thawed just prior to use and suspended in brain heart infusion with 4% Brewer's yeast UC9213 (Staphylococcus aureus) or brain hear infusion (Streptococcus species). Antibiotic treatment a six dose levels per drug was administered on hour and five hours after infection by either oral or subcutaneous routes. Survival was observed daily for six days. ED50 values based on mortality ratios were calculated using probit analysis. The subject compounds were compared against a well-known antibacterial (Vancomycin) as a control.
In Vivo Activity Against S. aureus UC ® 9213
With `CC(=O)NC[C@H]1CN(c2ccc(N3C[C@H]4CSC[C@H]4C3)c(F)c2)C(=O)O1` [Example 4, (S)-N-[[3-[3-fluoro-4-(tetrahydro-1H-thieno[3,4-c]pyrrol-5(3H)-yl)phenyl]-2-oxo-5-oxazolidinyl]methyl]acetamide], the ED50 was determined as 4.3 mg/kg. For `CC(=O)NC[C@H]1CN(c2ccc(N3C[C@@H]4CS(=O)(=O)C[C@@H]4C3)c(F)c2)C(=O)O1` [Example 6, (S)-N-[[3-[3-fluoro-4-(tetrahydro-1H-thieno[3,4-c]pyrrol-5(3H)-yl)phenyl]-2-oxo-5-oxazolidinyl]methyl]acetamide, S,S-dioxide] the value was 3.5 mg/kg; for `CC(=O)NC[C@H]1CN(c2ccc(N3C[C@@H]4C[S+]([O-])C[C@@H]4C3)c(F)c2)C(=O)O1` (stereo partly drawn) [Example 5, (S)-N-[[3-[3-fluoro-4-(tetrahydro-1H-thieno[3,4-c]pyrrol-5(3H)-yl)phenyl]-2-oxo-5-oxazolidinyl]methyl]acetamide, S-oxide], 10 mg/kg.

As to `CC(=O)NC[C@H]1CN(c2ccc(N3C[C@@H]4C[C@H]3CS4)c(F)c2)C(=O)O1` [Example 2, (S)-N-[[3-[3-fluoro-4-[(1S,4S)-2-thia-5-azabicyclo[2.2.1]heptan-5-yl]-phenyl]-2-oxo-5-oxazolidinyl]methyl]acetamide], the ED50 came to 4.2 mg/kg. The result for `CC(=O)NC[C@H]1CN(c2ccc(N3C[C@@H]4C[C@H]3CO4)c(F)c2)C(=O)O1` [Example 1, (S)-N-[[3-[4-[(1S,4S)-2-oxa-5-azabicyclo[2.2.1]heptan-5-yl]-3-fluorophenyl]-2-oxo-5-oxazolikinyl]methyl]acetamide] reads 7.7 mg/kg.
